ChEMBL document CHEMBL5344466, “Pyrrolidinone Derivatives as NIK Inhibitors for Treating Inflammatory and Autoimmune Diseases” (ACS Med Chem Lett, 2024)

biological target: Mitogen-activated protein kinase kinase kinase 14 (Homo sapiens, UniProt Q99558); assay: Inhibition of auto-phosphorylation of human GST-tagged NIK/MAP3K14 measured for 2 hrs by AlphaScreen assay
Sequence (Q99558 whole entry): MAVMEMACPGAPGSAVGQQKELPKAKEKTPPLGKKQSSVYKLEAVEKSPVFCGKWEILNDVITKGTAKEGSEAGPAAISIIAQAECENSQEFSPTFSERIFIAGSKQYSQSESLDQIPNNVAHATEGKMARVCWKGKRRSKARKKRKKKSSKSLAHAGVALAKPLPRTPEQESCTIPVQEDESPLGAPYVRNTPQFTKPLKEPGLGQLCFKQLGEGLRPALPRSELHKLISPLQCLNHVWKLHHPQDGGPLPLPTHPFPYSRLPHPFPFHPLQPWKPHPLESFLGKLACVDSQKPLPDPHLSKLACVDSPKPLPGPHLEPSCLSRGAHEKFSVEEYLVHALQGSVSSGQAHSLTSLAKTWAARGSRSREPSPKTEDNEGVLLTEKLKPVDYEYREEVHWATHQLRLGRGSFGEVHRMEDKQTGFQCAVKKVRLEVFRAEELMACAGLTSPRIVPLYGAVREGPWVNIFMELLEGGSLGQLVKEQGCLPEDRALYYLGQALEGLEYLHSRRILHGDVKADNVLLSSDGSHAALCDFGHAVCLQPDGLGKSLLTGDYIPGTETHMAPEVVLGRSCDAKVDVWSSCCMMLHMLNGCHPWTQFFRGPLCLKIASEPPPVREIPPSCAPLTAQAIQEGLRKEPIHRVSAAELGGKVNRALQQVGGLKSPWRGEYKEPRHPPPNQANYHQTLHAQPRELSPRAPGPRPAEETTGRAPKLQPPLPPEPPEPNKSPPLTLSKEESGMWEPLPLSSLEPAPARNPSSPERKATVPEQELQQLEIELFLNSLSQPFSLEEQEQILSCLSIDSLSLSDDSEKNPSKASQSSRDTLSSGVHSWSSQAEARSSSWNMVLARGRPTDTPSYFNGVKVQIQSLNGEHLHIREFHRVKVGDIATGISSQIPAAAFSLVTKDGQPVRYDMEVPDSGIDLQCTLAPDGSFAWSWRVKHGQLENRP

Question: Which IC50 does the source give for CN1CC[C@@](O)(c2cc(-c3cccc(-c4nc(C(N)=O)c(Br)s4)c3)no2)C1=O here?
Answer: < 100 nM

Question: With [2H]c1nc(N)c2nc(-c3cccc(-c4cnc([C@@]5(O)CCN(C)C5=O)s4)c3)ccc2n1 as the molecule, how does the IC50 read?
Answer: < 100 nM

Question: For CN1CC[C@@](O)(c2cc(-c3cccc(-c4cc(C5CC5)nc(C(N)=O)n4)c3)no2)C1=O, which IC50 is on record?
Answer: < 100 nM

Question: Which IC50 does the source give for CN1CCC(O)(c2cn(-c3cccc(-c4nc(C(N)=O)c5ccccc5n4)c3)cn2)C1=O (stereo unspecified) here?
Answer: < 100 nM

Question: For CN1CC[C@@](O)(c2cc(-c3cccc(-c4cc(N5CC(F)(F)C5)cc(C(N)=O)n4)c3)no2)C1=O, which IC50 is on record?
Answer: < 100 nM

Question: With CN1CC[C@@](O)(c2cc(-c3cccc(-c4ccc(C(N)=O)o4)c3)no2)C1=O as the molecule, how does the IC50 read?
Answer: < 100 nM
